The test system of this assay is hepatocellular carcinoma cell line Hub-7. Nature of the assay: Cell proliferation assay (CELL-TITER GLO cell viability). It counts as cell-based. To be noted: 24 h, Hub-7 cells, 24 h incubation, read-out: Inhibition of Cell Proliferation EC50. In short, it runs like this:
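[…] cells (4,000/well) seeded overnight, then exposed 24 h to compound from 10 μM in 3-fold serial dilutions. Viability read by CELL-TITER GLO luminescence; EC50 values derived.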

On to `COc1ccc(N(C(=O)CCl)C2(C(=O)NCCc3ccccc3)CCOCC2)cc1Cl` [C26, 4-(2-Chloro-N-(3-chloro-4-methoxyphenyl)acetamido)-N-phenethyltetrahydro-2H-pyran-4-carboxamide], for which the EC50 was not above 100 nM.
To `C#CC(=O)N(c1cccc(Cl)c1)C1(C(=O)NCc2ccccc2)CCCOC1` (stereo not drawn) [A174, N-Benzyl-3-(N-(3-chlorophenyl)propiolamido)tetrahydro-2H-pyran-3-carboxamide] belongs not above 100 nM; to `C#CC(=O)N(Cc1ccc(C(=O)OC)cc1)C(C)C(=O)NCc1ccccc1` (stereo not drawn) [A84, Methyl 4-((N-(1-(benzylamino)-1-oxopropan-2-yl)propiolamido)methyl)-benzoate], 100 to 500 nM.
For `C=C(F)C(=O)N(c1ccc2c(cnn2C)c1)C1(C(=O)NCc2ccccc2)CCOCC1` [B9, N-Benzyl-4-(2-fluoro-N-(1-methyl-1H-indazol-5-yl)acrylamido)tetrahydro-2H-pyran-4-carboxamide], the EC50 is more than 10000 nM.
The figure for `COc1ccc(N(C(=O)CCl)C(C)C(=O)NCCc2ccccc2)cc1Cl` (stereo not drawn) [C14] is 500 to 2000 nM; for `CC#CC(=O)N(c1cccc(Cl)c1)C(C(=O)NCc1ccccc1)c1ccccc1` (stereo not drawn) [A117, N-(2-(Benzylamino)-2-oxo-1-phenylethyl)-N-(3-chlorophenyl)but-2-ynamide] it is more than 10000 nM.
Take `C#CC(=O)N(c1ccc(S(N)(=O)=O)cc1)C(C(=O)NC(C)(C)C)c1cccc(N)c1` (stereo not drawn) [A25, N-(1-(3-Aminophenyl)-2-(tert-butylamino)-2-oxoethyl)-N-(4-sulfamoylphenyl)-propiolamide]: the EC50 was more than 10000 nM.
To `CCC(=O)N(c1cccc(Cl)c1)C(C(=O)NCc1ccccc1)c1ccc(N)cc1` (stereo not drawn) [D4, N-(1-(4-Aminophenyl)-2-(benzylamino)-2-oxoethyl)-N-(3-chlorophenyl)-propionamide] belongs more than 10000 nM.
As for `C#CC(=O)N(c1cc(Cl)ccc1F)C(C(=O)NCc1ccccc1)c1cccc(N)c1` (stereo not drawn) [A40, N-(1-(3-Aminophenyl)-2-(benzylamino)-2-oxoethyl)-N-(5-chloro-2-fluorophenyl)-propiolamide], the EC50 was not above 100 nM.
As to `C#CC(=O)N(c1cccc(F)c1)C(C(=O)NCc1ccccc1)c1ccc(N)cc1` (stereo not drawn) [A59, N-(1-(4-Aminophenyl)-2-(benzylamino)-2-oxoethyl)-N-(3-fluorophenyl)-propiolamide], the EC50 was in the range of 100 to 500 nM.
To `C#CC(=O)N(c1ccc2c(c1)C(=O)OC2)C(C(=O)NCc1ccccc1)c1ccccc1` (stereo not drawn) [A143, N-(2-(Benzylamino)-2-oxo-1-phenylethyl)-N-(3-oxo-1,3-dihydroisobenzofuran-5-yl)propiolamide] belongs not above 100 nM; to `C#CC(=O)N(c1ccc(O)cc1)C(C(=O)NC(C)(C)C)c1ccc(N)cc1` (stereo not drawn) [A12, N-(1-(4-Aminophenyl)-2-(tert-butylamino)-2-oxoethyl)-N-(4-hydroxyphenyl)-propiolamide], more than 10000 nM.
The figure for `CC(C)N(C(=O)CCl)C(C(=O)NCCc1ccccc1)c1cccs1` (stereo not drawn) [C1, 2-chloro-N-isopropyl-N-(2-oxo-2-(phenethylamino)-1-(thiophen-2-yl)ethyl)acetamide] is more than 10000 nM; for `C#CC(=O)N(c1cccc(Cl)c1)C1(C(=O)NCC(=O)N2CCCC(O)C2)CCOCC1` (stereo not drawn) [A183, 4-(N-(3-Chlorophenyl)propiolamido)-N-(2-(3-hydroxypiperidin-1-yl)-2-oxoethyl)tetrahydro-2H-pyran-4-carboxamide] it is 2000 to 10000 nM.
The figure for `C#CC(=O)N(c1cccc2cnn(C)c12)C(C(=O)NCc1ccccc1)c1ccccc1` (stereo not drawn) [A160, N-(2-(Benzylamino)-2-oxo-1-phenylethyl)-N-(1-methyl-1H-indazol-7-yl)propiolamide] is not above 100 nM.
For `C#CC(=O)N(c1ccc(NS(C)(=O)=O)cc1)C(C(=O)NC(C)(C)C)c1ccc(N)cc1` (stereo not drawn) [A17, N-(1-(4-Aminophenyl)-2-(tert-butylamino)-2-oxoethyl)-N-(4-(methyl-sulfonamido)phenyl)propiolamide], the EC50 is more than 10000 nM.
To `C#CC(=O)N(Cc1cccc(O)c1)C1(C(=O)NCc2ccccc2)CCCC(C(=O)OC)C1` (stereo not drawn) [A167, Methyl 3-(benzylcarbamoyl)-3-(N-(3-hydroxybenzyl)propiolamido)cyclohexane-1-carboxylate] belongs 100 to 500 nM; to `C#CC(=O)N(c1ccc(OC)cc1)C(C(=O)NC(C)(C)C)c1cccc(N)c1` (stereo not drawn) [A29, N-(1-(3-Aminophenyl)-2-(tert-butylamino)-2-oxoethyl)-N-(4-methoxyphenyl)-propiolamide], 500 to 2000 nM; to `C#CC(=O)N(CCc1ccccc1)C1(C(=O)NCc2ccccc2)CCCC(C(=O)OC)C1` (stereo not drawn) [A166, Methyl 3-(benzylcarbamoyl)-3-(N-phenethylpropiolamido)cyclohexane-1-carboxylate], 100 to 500 nM.
To `C=CC(=O)N(Cc1cccc(O)c1)C1(C(=O)NCc2ccccc2)CCOCC1` [B7, N-Benzyl-4-(N-(3-hydroxybenzyl)acrylamido)tetrahydro-2H-pyran-4-carboxamide] belongs more than 10000 nM; to `Cn1ncc2cc(N(C(=O)CCl)C3(C(=O)NCc4ccccc4)CCOCC3)ccc21` [C21, N-Benzyl-4-(2-chloro-N-(1-methyl-1H-indazol-5-yl)acetamido)tetrahydro-2H-pyran-4-carboxamide], 500 to 2000 nM.
To `C#CC(=O)N(c1ccc2c(cnn2C)c1)C(C(=O)NCc1ccccc1)c1ccccc1` (stereo not drawn) [A107, N-(2-(Benzylamino)-2-oxo-1-phenylethyl)-N-(1-methyl-1H-indazol-5-yl)-propiolamide] belongs not above 100 nM; to `C=C(F)C(=O)N(c1ccc(OC)c(Cl)c1)C(C(=O)NCc1ccccc1)c1cccc(N)c1` (stereo not drawn) [B4, N-(1-(3-Aminophenyl)-2-(benzylamino)-2-oxoethyl)-N-(3-chloro-4-methoxy-phenyl)-2-fluoroacrylamide], more than 10000 nM; to `C#CC(=O)N(c1ccc2c(c1)OC(F)(F)O2)C(C(=O)NCc1ccccc1)c1ccccc1` (stereo not drawn) [A99, N-(2-(Benzylamino)-2-oxo-1-phenylethyl)-N-(2,2-difluorobenzo[d][1,3]dioxol-5-yl)propiolamide], not above 100 nM.
Consider `C#CC(=O)N(c1cccc(-c2ccn(C)n2)c1)C1(C(=O)NCc2ccccc2)CCOCC1` [A136, N-Benzyl-4-(N-(3-(1-methyl-1H-pyrazol-3-yl)phenyl)propiolamido)tetrahydro-2H-pyran-4-carboxamide], for which the EC50 was in the range of 100 to 500 nM.
The figure for `C#CC(=O)N(c1ccc(Cl)c(Cl)c1)C(C(=O)NCc1ccccc1)c1ccc(N)cc1` (stereo not drawn) [A65, N-(1-(4-Aminophenyl)-2-(benzylamino)-2-oxoethyl)-N-(3,4-dichlorophenyl)-propiolamide] is not above 100 nM; for `C#CC(=O)N(c1cccc(Cl)c1)C(C(=O)NCc1ccc(F)cc1)c1ccccc1` (stereo not drawn) [A115, N-(3-Chlorophenyl)-N-(2-((4-fluorobenzyl)amino)-2-oxo-1-phenylethyl)-propiolamide] it is not above 100 nM; for `C#CC(=O)N(c1cccc(Cl)c1)C(C(=O)NCc1ccc(C#N)cc1)c1ccccc1` (stereo not drawn) [A114, N-(3-chlorophenyl)-N-(2-((4-cyanobenzyl)amino)-2-oxo-1-phenylethyl)propiolamide] it is not above 100 nM.
Consider `C#CC(=O)N(c1cccc(CO)c1)C(C(=O)NCc1ccccc1)c1ccc(N)cc1` (stereo not drawn) [A56, N-(1-(4-Aminophenyl)-2-(benzylamino)-2-oxoethyl)-N-(3-(hydroxymethyl)-phenyl)propiolamide], for which the EC50 is 2000 to 10000 nM.
To `C#CC(=O)N(c1cccc(C#N)c1)C(C(=O)NCc1ccccc1)c1ccccc1` (stereo not drawn) [A100, N-(2-(Benzylamino)-2-oxo-1-phenylethyl)-N-(3-cyanophenyl)propiolamide] belongs not above 100 nM; to `C#CC(=O)N(c1cccc(Cl)c1F)C(C(=O)NCc1ccccc1)c1cccc(N)c1` (stereo not drawn) [A41, N-(1-(3-Aminophenyl)-2-(benzylamino)-2-oxoethyl)-N-(3-chloro-2-fluoro-phenyl)propiolamide], not above 100 nM; to `C#CC(=O)N(c1ccc(O)cc1)C(C(=O)NCc1ccccc1)c1ccc(N)cc1` (stereo not drawn) [A64, N-(1-(4-Aminophenyl)-2-(benzylamino)-2-oxoethyl)-N-(4-hydroxyphenyl)-propiolamide], 2000 to 10000 nM.
The figure for `C#CC(=O)N(c1cccc(Cl)c1)C1(C(=O)NCc2ccccc2)CCCCC1` [A101, N-Benzyl-1-(N-(3-chlorophenyl)propiolamido)cyclohexanecarboxamide] is not above 100 nM; for `C#CC(=O)N(c1ccc(N(C)C)cc1)C1(C(=O)NCc2ccccc2)CCOCC1` [A140, N-Benzyl-4-(N-(4-(dimethylamino)phenyl)propiolamido)tetrahydro-2H-pyran-4-carboxamide] it is 100 to 500 nM; for `C#CC(=O)N(c1ccc(C(=O)OC)cc1)C(C(=O)NCc1ccccc1)c1cccc(N)c1` (stereo not drawn) [A49, Methyl 4-(N-(1-(3-aminophenyl)-2-(benzylamino)-2-oxoethyl)propiolamido)-benzoate] it is not above 100 nM.
The figure for `C#CC(=O)N(c1cccc(Cl)c1)C1(C(=O)NCC(=O)OCC)CCOCC1` [A191, Ethyl 2-(4-(N-(3-chlorophenyl)propiolamido)tetrahydro-2H-pyran-4-carboxamido)acetate] is 500 to 2000 nM.
For the molecule `C#CC(=O)N(c1ccc(NS(C)(=O)=O)cc1)C(C(=O)NC(C)(C)C)c1cccc(N)c1` (stereo not drawn) [A24, N-(1-(3-Aminophenyl)-2-(tert-butylamino)-2-oxoethyl)-N-(4-(methyl-sulfonamido)phenyl)propiolamide], the EC50 is more than 10000 nM.
To `C#CC(=O)N(c1ccc(Cl)c(Cl)c1)C1(C(=O)NCc2ccccc2)CCOCC1` [A108, N-Benzyl-4-(N-(3,4-dichlorophenyl)propiolamido)tetrahydro-2H-pyran-4-carboxamide] belongs not above 100 nM.
The figure for `C#CC(=O)N(c1cccc(Cl)c1)C(C(=O)NCC1CCOCC1)c1ccccc1` (stereo not drawn) [A180, N-(3-Chlorophenyl)-N-(2-oxo-1-phenyl-2-(((tetrahydro-2H-pyran-4-yl)methyl)-amino)ethyl)propiolamide] is not above 100 nM.
